# Measured values taken from patent US10071967B2, “N-cycloalkyl-N-{[2-(1-substitutedcycloalkyl)phenyl]methylene}-(thio)carboxamide derivatives” (BAYER CROPSCIENCE AKTIENGESELLSCHAFT, priority 2013, dated 2018).
# Assay: log P by HPLC on a reversed-phase column (C 18), EEC Directive 79/831 Annex V.A8
# Format: physicochemical
# Details: HPLC reversed-phase C 18, 40° C., 0.1% aqueous formic acid and acetonitrile, gradient 10% to 90% acetonitrile
# Method: In table 1, the log P values were determined in accordance with EEC Directive 79/831 Annex V.A8 by HPLC (High Performance Liquid Chromatography) on a reversed-phase column (C 18), using the method described below: Temperature: 40° C.; Mobile phases: 0.1% aqueous formic acid and acetonitrile; linear gradient from 10% acetonitrile to 90% acetonitrile. Calibration was carried out using unbranched alkan-2-ones (comprising 3 to 16 carbon atoms) with known log P values (determination of the log P values by the retention times using linear interpolation between two successive alkanones). lambda-max-values were determined using UV-spectra from 200 nm to 400 nm and the peak values of the chromatographic signals.
row,SMILES,logP
1,Cc1nn(C)c(Cl)c1C(=O)N(Cc1cc(Cl)c(Cl)cc1C1(C)CC1)C1CC1 [Example 1.161],4.61
2,COCC1(c2ccc(C)cc2CN(C(=O)c2c(C)nn(C)c2F)C2CC2)CC1 [Example 1.156],3.02
3,COCC1(c2ccc(C)cc2CN(C(=O)c2cn(C)nc2C)C2CC2)CC1 [Example 1.157],2.61
4,Cn1cc(C(=O)N(Cc2cc(Cl)c(Cl)cc2C2(C)CC2)C2CC2)c(C(F)F)n1 [Example 1.163],4.28
5,Cc1cc(C(=O)N(Cc2cc(Cl)c(Cl)cc2C2(C)CC2)C2CC2)c(C)o1 [Example 1.159],5.43
6,Cc1cc(C(=O)N(Cc2cc(F)ccc2C2(C(F)(F)F)CC2)C2CC2)c(C)o1 [Example 1.151],4.44
7,COCC1(c2ccc(C)cc2CN(C(=O)c2cn(C)nc2C(F)F)C2CC2)CC1 [Example 1.154],3.13

# Same assay, conditions: HPLC, reversed-phase column (C 18), 40° C.; 0.1% aqueous formic acid and acetonitrile, linear gradient 10% to 90% acetonitrile
row,SMILES,logP
1,Cc1nn(C)c(F)c1C(=O)N(Cc1ccc(Cl)cc1C1(CC(C)C)CC1)C1CC1 [Example 1.143],5.08
2,CCC1(c2ccccc2CN(C(=O)c2cn(C)nc2C(F)F)C2CC2)CC1 [Example 1.067],3.79
3,Cn1cc(C(=S)N(Cc2cc(Cl)ccc2C2(C)CC2)C2CC2)c(C(F)F)n1 [Example 1.031],4.37
4,Cc1cc(C(=O)N(Cc2cc(Br)ccc2C2(C)CC2)C2CC2)c(C)o1 [Example 1.028],5.08
5,Cc1ccc(C2(C)CC2)c(CN(C(=O)c2c(C(F)(F)F)nn(C)c2F)C2CC2)c1 [Example 1.038],4.61
6,CCC1(c2cc(Cl)ccc2CN(C(=O)c2cc(C)oc2C)C2CC2)CC1 [Example 1.071],5.34
7,Cn1cc(C(=O)N(Cc2cc(F)c(F)cc2C2(C)CC2)C2CC2)c(C(F)F)n1 [Example 1.019],3.68
8,Cn1cc(C(=O)N(Cc2cc(Cl)ccc2C2(C(F)(F)F)CC2)C2CC2)c(C(F)F)n1 [Example 1.147],3.78
9,Cc1ccc(C2(C)CC2)c(CN(C(=S)c2oc(C)nc2C(F)F)C2CC2)c1 [Example 1.053],4.92
10,CCC1(c2ccc(Cl)cc2CN(C(=O)c2c(C)nn(C)c2F)C2CC2)CC1 [Example 1.087],4.23
11,Cn1cc(C(=O)N(Cc2cc(F)ccc2C2(C(F)F)CC2)C2CC2)c(C(F)F)n1 [Example 1.137],3.09
12,Cc1ccc(C2(C)CC2)c(CN(C(=O)c2cc(C3CC3)oc2C)C2CC2)c1 [Example 1.045],5.22
13,Cc1nn(C)cc1C(=O)N(Cc1cccc(F)c1C1(C)CC1)C1CC1 [Example 1.004],2.98
14,COC1(c2ccccc2CN(C(=O)c2cn(C)nc2C(F)F)C2CC2)CC1 [Example 1.104],2.88
15,Cc1ccc(C2(C)CC2)c(CN(C(=O)c2cc(C)oc2C)C2CC2)c1 [Example 1.047],4.85
16,CCOC1(c2ccc(C)cc2CN(C(=O)c2nn(C)cc2C(F)F)C2CC2)CC1 [Example 1.130],3.94
17,Cn1cc(C(=O)N(Cc2cc(Br)ccc2C2(C(F)F)CC2)C2CC2)c(C(F)F)n1 [Example 1.134],3.44
18,COc1cc(CN(C(=O)c2cn(C)nc2C(F)F)C2CC2)c(C2(C)CC2)cc1OC [Example 1.020],2.98
19,CCC1(c2ccc(Cl)cc2CN(C(=O)c2c(OC(F)F)nn(C)c2F)C2CC2)CC1 [Example 1.089],4.78
20,Cn1cc(C(=O)N(Cc2cc(F)ccc2C2(C)CC2)C2CC2)c(C(F)F)n1 [Example 1.032],3.51
21,C=Cc1cc(C(=O)N(Cc2cc(C)ccc2C2(C)CC2)C2CC2)c(C)o1 [Example 1.049],5.00

row,SMILES,logP
1,CCC1(c2cc(Cl)ccc2CN(C(=O)c2cc(C)oc2C(F)F)C2CC2)CC1 [Example 1.072],5.28
2,Cc1ccc(C2(C)CC2)c(CN(C(=O)c2oc(C)nc2C(F)F)C2CC2)c1 [Example 1.046],4.39
3,Cc1ccc(C2(C(C)C)CC2)c(CN(C(=O)c2cc(C)oc2C(F)F)C2CC2)c1 [Example 1.120],5.54
4,CCC1(c2cc(Cl)ccc2CN(C(=O)c2nn(C)nc2C(F)F)C2CC2)CC1 [Example 1.073],4.87
5,Cc1cc(C(=O)N(Cc2c(C3(C)CC3)ccc(C)c2F)C2CC2)c(C)o1 [Example 1.055],5.08
6,Cn1cc(C(=O)N(Cc2c(Br)cccc2C2(C(F)F)CC2)C2CC2)c(C(F)F)n1 [Example 1.142],3.39
7,Cn1cc(C(=O)N(Cc2cc(Br)ccc2C2(C)CC2)C2CC2)c(C(F)F)n1 [Example 1.024],3.94
8,Cc1cc(C(=O)N(Cc2ccccc2C2(C(F)(F)F)CC2)C2CC2)c(C)o1 [Example 1.146],4.31
9,Cn1cc(C(=O)N(Cc2ccc(F)cc2C2(C)CC2)C2CC2)c(C(F)F)n1 [Example 1.013],3.52
10,CCC1(c2ccc(C)cc2CN(C(=O)c2c(OC(F)F)nn(C)c2Cl)C2CC2)CC1 [Example 1.101],2.84
11,CCC1(c2ccc(C)cc2CN(C(=S)c2cn(C)nc2C(F)F)C2CC2)CC1 [Example 1.099],4.69
12,CCC1(c2ccccc2CN(C(=S)c2cn(C)nc2C(F)F)C2CC2)CC1 [Example 1.068],4.37
13,CCC1(c2cccc(F)c2CN(C(=O)c2cn(C)nc2C(F)F)C2CC2)CC1 [Example 1.102],3.74
14,Cn1cc(C(=O)N(Cc2cccc(Cl)c2C2(C)CC2)C2CC2)c(C(F)F)n1 [Example 1.001],3.89
15,Cn1cc(C(=O)N(Cc2ccc(Cl)cc2C2(C)CC2)C2CC2)c(C(F)F)n1 [Example 1.010],3.96
16,COc1ccc(CN(C(=O)c2c(C)nn(C)c2F)C2CC2)c(C2(C)CC2)c1 [Example 1.018],3.23
17,Cc1ccc(C2(Cl)CC2)c(CN(C(=O)c2cn(C)nc2C(F)F)C2CC2)c1 [Example 1.105],3.51
18,CCCC1(c2cc(Cl)ccc2CN(C(=O)c2nn(C)nc2C(F)F)C2CC2)CC1 [Example 1.112],5.31
19,CCC1(c2ccc(C)cc2CN(C(=O)c2nn(C)nc2C(F)F)C2CC2)CC1 [Example 1.094],4.77
20,Cc1ccc(C2(C(F)F)CC2)c(CN(C(=S)c2cn(C)nc2C(F)F)C2CC2)c1 [Example 1.140],3.76
21,Cc1ccc(CN(C(=O)c2c(C)nn(C)c2F)C2CC2)c(C2(C)CC2)c1 [Example 1.016],3.71

row,SMILES,logP
1,CCC1(c2cc(C)c(F)cc2CN(C(=O)c2cn(C)nc2C(F)F)C2CC2)CC1 [Example 1.081],4.24
2,CCC1(c2cc(C)ccc2CN(C(=S)c2cn(C)nc2C(F)F)C2CC2)CC1 [Example 1.076],4.67
3,Cc1ccc(C2(C(F)F)CC2)c(CN(C(=S)c2c(C)nn(C)c2F)C2CC2)c1 [Example 1.141],3.81
4,Cc1ccc(C2(C)CC2)c(CN(C(=O)c2cc(C)oc2C(F)F)C2CC2)c1 [Example 1.042],4.62
5,Cc1ccc(C2(CC(C)C)CC2)c(CN(C(=O)c2c(C)nn(C)c2F)C2CC2)c1 [Example 1.144],4.97
6,Cc1nn(C)cc1C(=S)N(Cc1cccc(F)c1C1(C)CC1)C1CC1 [Example 1.005],3.64
7,Cc1c(C(=O)N(Cc2cc(Cl)ccc2C2(C)CC2)C2CC2)c(C(F)F)nn1C [Example 1.030],4.06
8,COc1ccc(CN(C(=O)c2cn(C)nc2C(F)F)C2CC2)c(C2(C)CC2)c1 [Example 1.017],3.31
9,Cc1ccc(C2(C3CC3)CC2)c(CN(C(=O)c2cn(C)nc2C(F)F)C2CC2)c1 [Example 1.107],4.11
10,CCOC1(c2ccc(C)cc2CN(C(=O)c2c(C)nn(C)c2F)C2CC2)CC1 [Example 1.127],3.53
11,CCC1(c2ccc(Cl)cc2CN(C(=O)c2cc(C)oc2C)C2CC2)CC1 [Example 1.088],5.31
12,CCOC1(c2ccc(C)cc2CN(C(=O)c2cn(C)nc2C)C2CC2)CC1 [Example 1.129],3.02
13,Cc1cc(C(=O)N(Cc2ccc(Cl)cc2C2(C)CC2)C2CC2)c(C)o1 [Example 1.007],4.98
14,Cn1cc(C(=S)N(Cc2cc(Cl)ccc2C2(C(F)(F)F)CC2)C2CC2)c(C(F)F)n1 [Example 1.149],4.23
15,Cc1nn(C)c(F)c1C(=O)N(Cc1cc(Br)ccc1C1(C)CC1)C1CC1 [Example 1.027],3.99
16,Cc1ccc(C2(C)CC2)c(CN(C(=S)c2cn(C)nc2C(F)F)C2CC2)c1 [Example 1.052],4.39
17,Cc1ccc(C2(C)CC2)c(CN(C(=O)c2ccoc2C(F)F)C2CC2)c1 [Example 1.043],4.35
18,CCCC1(c2ccc(C)cc2CN(C(=S)c2cn(C)nc2C(F)F)C2CC2)CC1 [Example 1.116],5.08
19,Cn1cc(C(=O)N(Cc2cc(Cl)ccc2C2(C)CC2)C2CC2)c(C(F)F)n1 [Example 1.029],3.83
20,Cc1ccc(C2(C)CC2)c(CN(C(=O)c2nn(C)nc2C(F)F)C2CC2)c1 [Example 1.050],4.37
21,Cc1nn(C)c(F)c1C(=O)N(Cc1ccc2c(c1C1(C)CC1)OCO2)C1CC1 [Example 1.056],3.06

# Same assay, conditions: Table 2, compounds of formula (I); HPLC C 18, 40° C., 0.1% aqueous formic acid and acetonitrile
row,SMILES,logP
1,Cn1cc(C(=S)N(Cc2cccc3c2C2(CCC3)CC2)C2CC2)c(C(F)F)n1 [Ia.03],4.37
2,Cn1cc(C(=O)N(Cc2cccc3c2C2(CCC3)CC2(Cl)Cl)C2CC2)c(C(F)F)n1 (racemic) [Ia.04],4.06

# Same assay, conditions: reversed-phase C18 HPLC column; given in the preparation examples
row,SMILES,chromatographic logP
1,"Cn1cc(C(=O)N(Cc2cc(F)ccc2C2(C(F)F)CC2)C2CC2)c(C(F)F)n1 [I.137, N-cyclopropyl-3-(difluoromethyl)-N-{2-[1-(difluoromethyl)cyclopropyl]-5-fluorobenzyl}-1-methyl-1H-pyrazole-4-carboxamide]",3.09
